# Experimental data from patent US20240139236A1, “COPPER HISTIDINATE COMPOSITIONS AND USES THEREOF” (Cyprium Therapeutics, Inc., priority 2021, published 2024).
# Experiments:
# [1] = system: classic Menkes disease patients; assay: Subcutaneous copper histidinate treatment of Menkes patients (serum copper, renal safety monitoring); type: in vivo, human; conditions: 1450 μg SC BID younger than 12 months, QD older than 12 months
# Source text: The purpose of this study was to allow currently enrolled participants to complete a three-year course of subcutaneous copper histidinate treatment under a previous protocol. It was hypothesized that subcutaneous injections of this drug will raise serum copper levels and ceruloplasmin levels in enrolled participants, improve neurodevelopmental and neurological outcomes, and reduce mortality compared to untreated affected subjects. The broad overall hypothesis of this treatment study is that subcutaneous copper histidinate injections will normalize circulating copper levels and provide health benefits to individuals with copper deficiency due to genetic abnormalities such as classic Menkes disease or which is unexplained. The trial represents an open-label design in which all enrolled subjects receive subcutaneous injections of copper histidinate. Immediate potential benefits of Copper Histidinate treatment in classic Menkes disease include protection against seizure activity and accrual of neurodevelopmental skills in an age-appropriate fashion. Long-term potential benefits include enhanced lifespan and quality of life, as noted in other subjects with classic Menkes disease treated with Copper Histidinate. […]
# [2] = system: classic Menkes disease patients; conditions: cited from earlier work
# [3] = system: Menkes disease subjects; assay: Long term follow up of Menkes disease patients treated with copper histidinate (survival); type: in vivo, human; conditions: early treatment vs untreated historical controls
# Method: During the study patients were administered does of copper histidinate as follows: 1450 μg subcutaneous BID in infants up to 12 months of age, and 1450 μg subcutaneous QD for infants and children older than 12 months.
# This study was designed as a long term follow up on patients previously identified and/or enrolled in previous studies for the treatment of Menkes disease with copper histidinate and untreated patients to determine survival, neurological development, quality of life status and adverse events. This study followed the patients from the previous examples for long term follow up.
# Patients previously enrolled in clinical trials for the treatment of Menkes disease with copper histidinate were assessed for survival status, neurological development status and quality of life. No drug was be administered during this study.
compound,measurement,setting,value
"N[C@@H](Cc1cnc[nH]1)C(=O)[O-].N[C@@H](Cc1cnc[nH]1)C(=O)[O-].[Cu+2] [copper histidinate, (2S)-2-amino-3-(1H-imidazol-5-yl) propanoic acid, Copper]",serum copper levels under the standard dosing regimen,[1],maintains serum copper levels in the normal range
same,renal tubular injury caused by copper histidinate,[2],reversible
same,reduction in the risk of death,[3],~80%
same,hazard ratio (risk of death),[3]; p<0.00001,0.21
